Assay: Mouse body weight and temperature during macrophage depletion and CFZ feeding
Format: in vivo
Details: mice, final measurement; four weeks diet, two weeks liposomes
Method: Mice (4 week old, male C57B16) were purchased from the Jackson Laboratory (Bar Harbor, Me.) and acclimatized for 1 week in a specific-pathogen-free animal facility. Clofazimine (CFZ) (C8895; Sigma, St. Louis, Mo.) was dissolved in sesame oil (Shirakiku, Japan) to achieve a concentration of 3 mg/ml, which was mixed with Powdered Lab Diet 5001 (PMI International, Inc., St. Louis, Mo.) to produce a 0.03% drug to powdered feed mix, and orally administered ad libitum for 4 weeks. A corresponding amount of sesame oil was mixed with chow for vehicle treatment (control). Mice were euthanized via carbon dioxide asphyxiation and exsanguination. Animal care was provided by the University of Michigan's Unit for Laboratory Animal Medicine (ULAM).
In order to deplete tissue macrophages, mice were treated with liposomes containing either 7 mg/mL clodronate or phosphate-buffered saline (PBS) (FormuMax Scientific Inc., Sunnyvale, Calif.) for up to six weeks. Liposomes were injected IP to eliminate macrophages of the liver, spleen, and peritoneal cavity. Mice were initially treated with 200 μL of liposomes, followed by 100 μL injections twice per week to ensure continual depletion of macrophages. […]
During the course of the experiment, the body weight and temperature of the mice were measured daily to track the impact of the loss of drug-sequestering cells on the general health of the mouse. […]

With `CC(C)N=c1cc2n(-c3ccc(Cl)cc3)c3ccccc3nc-2cc1Nc1ccc(Cl)cc1` [CFZ, 3-(p-chloroanilino)-10-(p-chlorophenyl)-2, 10-dihydro-2-isopropyliminophenazine] the “Average Body Temperature (n = 3-4)” value was 34.3 ± 0.3 °C and the “Average Body Weight (n = 3-4)” value was 25.7 ± 0.8 g.
